According to patent US10640506B2, “Cyclobutyl substituted pyrrolopyridine and pyrrolopyrimidines derivatives as JAK inhibitors” (Incyte Corporation, priority 2010, dated 2020):
pIC50: −log10 of the molar value.

Assays:
[1] = target: human JAK1 (a.a. 837-1142) (Homo sapiens, UniProt P23458); assay: In vitro JAK kinase assay (HTRF, phosphorylation of biotinylated peptide), JAK1; type: biochemical; settings: Table F; 1 mM ATP
Outline: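 His-tagged human JAK1 catalytic domain (a.a. 837-1142), baculovirus/insect-cell expressed, phosphorylates a biotinylated peptide for 1 h at room temperature. Reaction stopped with EDTA; product detected by HTRF (SA-APC, Eu-Py20, 40 min binding). IC50 reported as ranges.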

JAK2 (a.a. 828-1132) = target: T1, JAK2 (a.a. 828-1132) (Homo sapiens, UniProt O60674); assay: In vitro JAK kinase assay (HTRF, phosphorylation of biotinylated peptide), JAK2; type: biochemical; settings: Table F; 1 mM ATP
T1 construct: JAK2 (a.a. 828-1132); His tag (N)
Outline: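 His-tagged catalytic domains of human JAK1 (a.a. 837-1142) and JAK2 (a.a. 828-1132), baculovirus-expressed, phosphorylate a biotinylated peptide for 1 hour at room temperature. Stopped with EDTA; detected by HTRF using SA-APC and Eu-Py20 antibody after 40 min binding; values binned as ranges.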

Sequence of human JAK1 (a.a. 837-1142) (P23458 849-1154): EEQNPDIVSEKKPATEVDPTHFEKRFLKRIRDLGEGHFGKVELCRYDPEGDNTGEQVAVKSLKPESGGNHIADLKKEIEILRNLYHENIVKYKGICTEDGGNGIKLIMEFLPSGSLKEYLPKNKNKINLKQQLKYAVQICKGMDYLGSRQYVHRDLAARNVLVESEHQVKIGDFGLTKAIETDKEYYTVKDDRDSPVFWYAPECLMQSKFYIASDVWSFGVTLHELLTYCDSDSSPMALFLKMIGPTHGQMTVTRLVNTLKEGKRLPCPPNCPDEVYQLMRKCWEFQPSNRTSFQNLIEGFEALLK
T1 sequence (O60674 828-1132): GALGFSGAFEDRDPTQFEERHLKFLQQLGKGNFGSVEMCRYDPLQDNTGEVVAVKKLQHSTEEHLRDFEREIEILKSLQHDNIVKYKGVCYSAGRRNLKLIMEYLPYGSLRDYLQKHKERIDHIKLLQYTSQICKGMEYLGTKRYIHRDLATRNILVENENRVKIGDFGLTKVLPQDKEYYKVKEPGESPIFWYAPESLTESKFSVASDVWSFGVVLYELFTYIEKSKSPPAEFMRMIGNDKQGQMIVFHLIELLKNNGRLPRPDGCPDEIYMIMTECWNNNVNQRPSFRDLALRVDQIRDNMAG

| Structure (SMILES) | pIC50 [1] | pIC50 (JAK2 (a.a. 828-1132)) |
| --- | --- | --- |
| CN(C)Cc1cc(OC2CCN([C@H]3C[C@](CC#N)(n4cc(-c5ncnc6[nH]ccc56)cn4)C3)CC2)nc(C(F)(F)F)c1 [Example 130, {trans-3-(4-{[4-[(dimethylamino)methyl]-6-(trifluoromethyl)pyridin-2-yl]oxy}piperidin-1-yl)-1-[4-(7H-pyrrolo[2,3-d]pyrimidin-4-yl)-1H-pyrazol-1-yl]cyclobutyl}acetonitrile] | > 8.00 | < 7.00 |
| CCNCc1cc(OC2CCN([C@H]3C[C@](CC#N)(n4cc(-c5ncnc6[nH]ccc56)cn4)C3)CC2)nc(C(F)(F)F)c1 [Example 131, {trans-3-(4-{[4-[(ethylamino)methyl]-6-(trifluoromethyl)pyridin-2-yl]oxy}piperidin-1-yl)-1-[4-(7H-pyrrolo[2,3-d]pyrimidin-4-yl)-1H-pyrazol-1-yl]cyclobutyl}acetonitrile] | > 8.00 | 7.00 to 7.60 |
| CNCc1cc(OC2CCN([C@H]3C[C@](CC#N)(n4cc(-c5ncnc6[nH]ccc56)cn4)C3)CC2)nc(C(F)(F)F)c1 [Example 132, {trans-3-(4-{[4-[(methylamino)methyl]-6-(trifluoromethyl)pyridin-2-yl]oxy}piperidin-1-yl)-1-[4-(7H-pyrrolo[2,3-d]pyrimidin-4-yl)-1H-pyrazol-1-yl]cyclobutyl}acetonitrile] | > 8.00 | 7.00 to 7.60 |
| CN(C)Cc1cc(C(=O)N2CCN([C@H]3C[C@@](CC#N)(n4cc(-c5ncnc6[nH]ccc56)cn4)C3)CC2)cc(C(F)(F)F)c1 [Example 135, {cis-3-{4-[3-[(dimethylamino)methyl]-5-(trifluoromethyl)benzoyl]piperazin-1-yl}-1-[4-(7H-pyrrolo[2,3-d]pyrimidin-4-yl)-1H-pyrazol-1-yl]cyclobutyl}acetonitrile] | 7.60 to 8.00 | < 7.00 |
| CN(C)Cc1cc(C#N)cc(C(=O)N2CCN([C@H]3C[C@](CC#N)(n4cc(-c5ncnc6[nH]ccc56)cn4)C3)CC2)c1 [Example 136, 3-[(4-{trans-3-(cyanomethyl)-3-[4-(7H-pyrrolo[2,3-d]pyrimidin-4-yl)-1H-pyrazol-1-yl]cyclobutyl}piperazin-1-yl)carbonyl]-5-[(dimethylamino)methyl]benzonitrile] | > 8.00 | 7.00 to 7.60 |
| CN(C)Cc1cc(C#N)cc(OC2CCN([C@H]3C[C@](CC#N)(n4cc(-c5ncnc6[nH]ccc56)cn4)C3)CC2)c1 [Example 137, 3-[(1-{trans-3-(cyanomethyl)-3-[4-(7H-pyrrolo[2,3-d]pyrimidin-4-yl)-1H-pyrazol-1-yl]cyclobutyl}piperidin-4-yl)oxy]-5-[(dimethylamino)methyl]benzonitrile] | 7.60 to 8.00 | < 7.00 |
| CN(C)Cc1cc(OC2CCN([C@H]3C[C@](CC#N)(n4cc(-c5ncnc6[nH]ccc56)cn4)C3)CC2)cc(C(F)(F)F)c1 [Example 138, {trans-3-{4-[3-[(Dimethylamino)methyl]-5-(trifluoromethyl)phenoxy]piperidin-1-yl}-1-[4-(7H-pyrrolo[2,3-d]pyrimidin-4-yl)-1H-pyrazol-1-yl]cyclobutyl}acetonitrile] | 7.60 to 8.00 | < 7.00 |
| CCN(CC)Cc1cc(OC2CCN([C@H]3C[C@](CC#N)(n4cc(-c5ncnc6[nH]ccc56)cn4)C3)CC2)cc(C(F)(F)F)c1 [Example 139, {trans-3-{4-[3-[(diethylamino)methyl]-5-(trifluoromethyl)phenoxy]piperidin-1-yl}-1-[4-(7H-pyrrolo[2,3-d]pyrimidin-4-yl)-1H-pyrazol-1-yl]cyclobutyl}acetonitrile] | > 8.00 | < 7.00 |
| CN(C)Cc1cc(OC2CCN([C@H]3C[C@](CC#N)(n4cc(-c5ncnc6[nH]ccc56)cn4)C3)CC2)cc(C(F)F)c1 [Example 140, {trans-3-(4-{3-(difluoromethyl)-5-[(dimethylamino)methyl]phenoxy}piperidin-1-yl)-1-[4-(7H-pyrrolo[2,3-d]pyrimidin-4-yl)-1H-pyrazol-1-yl]cyclobutyl}acetonitrile] | 7.60 to 8.00 | < 7.00 |
| CN(C)Cc1cc(Cl)nc(OC2CCN([C@H]3C[C@](CC#N)(n4cc(-c5ncnc6[nH]ccc56)cn4)C3)CC2)c1 [Example 141, {trans-3-[4-({6-chloro-4-[(dimethylamino)methyl]pyridin-2-yl}oxy)piperidin-1-yl]-1-[4-(7H-pyrrolo[2,3-d]pyrimidin-4-yl)-1H-pyrazol-1-yl]cyclobutyl}acetonitrile] | > 8.00 | > 8.00 |
| CN(C)Cc1cc(OC2CCN([C@H]3C[C@](CC#N)(n4cc(-c5ncnc6[nH]ccc56)cn4)C3)CC2)nc(C(F)(F)F)n1 [Example 142, {trans-3-(4-{[6-[(dimethylamino)methyl]-2-(trifluoromethyl)pyrimidin-4-yl]oxy}piperidin-1-yl)-1-[4-(7H-pyrrolo[2,3-d]pyrimidin-4-yl)-1H-pyrazol-1-yl]cyclobutyl}acetonitrile] | 7.60 to 8.00 | < 7.00 |
| CCNCc1cc(OC2CCN([C@H]3C[C@](CC#N)(n4cc(-c5ncnc6[nH]ccc56)cn4)C3)CC2)nc(C(F)(F)F)n1 [Example 143, {trans-3-(4-{[6-[(ethylamino)methyl]-2-(trifluoromethyl)pyrimidin-4-yl]oxy}piperidin-1-yl)-1-[4-(7H-pyrrolo[2,3-d]pyrimidin-4-yl)-1H-pyrazol-1-yl]cyclobutyl}acetonitrile] | 7.60 to 8.00 | 7.00 to 7.60 |
| N#CC[C@]1(n2cc(-c3ncnc4[nH]ccc34)cn2)C[C@H](N2CCC(Oc3cc(CN4CC(O)C4)nc(C(F)(F)F)n3)CC2)C1 [Example 144, {trans-3-(4-{[6-[(3-hydroxyazetidin-1-yl)methyl]-2-(trifluoromethyl)pyrimidin-4-yl]oxy}piperidin-1-yl)-1-[4-(7H-pyrrolo[2,3-d]pyrimidin-4-yl)-1H-pyrazol-1-yl]cyclobutyl}acetonitrile] | 7.60 to 8.00 | < 7.00 |
| Cc1cc(OC2CCN([C@H]3C[C@](CC#N)(n4cc(-c5ncnc6[nH]ccc56)cn4)C3)CC2)nc(C(F)(F)F)n1 [Example 145, {trans-3-(4-{[6-methyl-2-(trifluoromethyl)pyrimidin-4-yl]oxy}piperidin-1-yl)-1-[4-(7H-pyrrolo[2,3-d]pyrimidin-4-yl)-1H-pyrazol-1-yl]cyclobutyl}acetonitrile] | 7.60 to 8.00 | < 7.00 |
| N#CC[C@]1(n2cc(-c3ncnc4[nH]ccc34)cn2)C[C@H](N2CCC(Oc3cc(CO)nc(C(F)(F)F)n3)CC2)C1 [Example 146, {trans-3-(4-{[6-(hydroxymethyl)-2-(trifluoromethyl)pyrimidin-4-yl]oxy}piperidin-1-yl)-1-[4-(7H-pyrrolo[2,3-d]pyrimidin-4-yl)-1H-pyrazol-1-yl]cyclobutyl}acetonitrile] | 7.60 to 8.00 | < 7.00 |
| N#CC[C@]1(n2cc(-c3ncnc4[nH]ccc34)cn2)C[C@H](N2CCC(Oc3cc(CN)nc(C(F)(F)F)n3)CC2)C1 [Example 147, {trans-3-(4-{[6-(aminomethyl)-2-(trifluoromethyl)pyrimidin-4-yl]oxy}piperidin-1-yl)-1-[4-(7H-pyrrolo[2,3-d]pyrimidin-4-yl)-1H-pyrazol-1-yl]cyclobutyl}acetonitrile] | 7.60 to 8.00 | 7.00 to 7.60 |
| N#CC[C@]1(n2cc(-c3ncnc4[nH]ccc34)cn2)C[C@H](N2CCC(Oc3cc(CN4CCCC4)nc(C(F)(F)F)n3)CC2)C1 [Example 148, {trans-3-(4-{[6-(pyrrolidin-1-ylmethyl)-2-(trifluoromethyl)pyrimidin-4-yl]oxy}piperidin-1-yl)-1-[4-(7H-pyrrolo[2,3-d]pyrimidin-4-yl)-1H-pyrazol-1-yl]cyclobutyl}acetonitrile] | 7.60 to 8.00 | < 7.00 |
| N#CC[C@]1(n2cc(-c3ncnc4[nH]ccc34)cn2)C[C@H](N2CCC(Oc3cc(CN4CCOCC4)nc(C(F)(F)F)n3)CC2)C1 [Example 149, {trans-3-(4-{[6-(morpholin-4-ylmethyl)-2-(trifluoromethyl)pyrimidin-4-yl]oxy}piperidin-1-yl)-1-[4-(7H-pyrrolo[2,3-d]pyrimidin-4-yl)-1H-pyrazol-1-yl]cyclobutyl}acetonitrile] | 7.00 to 7.60 | < 7.00 |
| N#CC[C@]1(n2cc(-c3ncnc4[nH]ccc34)cn2)C[C@H](N2CCC(Oc3cc(CN4CCC4)nc(C(F)(F)F)n3)CC2)C1 [Example 150, {cis-3-(4-{[6-(azetidin-1-ylmethyl)-2-(trifluoromethyl)pyrimidin-4-yl]oxy}piperidin-1-yl)-1-[4-(7H-pyrrolo[2,3-d]pyrimidin-4-yl)-1H-pyrazol-1-yl]cyclobutyl}acetonitrile] | 7.60 to 8.00 | < 7.00 |
| Cc1cc(OC2CCN([C@H]3C[C@@](CC#N)(n4cc(-c5ncnc6[nH]ccc56)cn4)C3)CC2)nc(C(F)(F)F)c1 [Example 151, {trans-3-(4-{[4-methyl-6-(trifluoromethyl)pyridin-2-yl]oxy}piperidin-1-yl)-1-[4-(7H-pyrrolo[2,3-d]pyrimidin-4-yl)-1H-pyrazol-1-yl]cyclobutyl}acetonitrile] | > 8.00 | 7.00 to 7.60 |
| N#CC[C@]1(n2cc(-c3ncnc4[nH]ccc34)cn2)C[C@H](N2CCN(C(=O)NC(C(F)(F)F)C(F)(F)F)CC2)C1 [Example 152, 4-{trans-3-(Cyanomethyl)-3-[4-(7H-pyrrolo[2,3-d]pyrimidin-4-yl)-1H-pyrazol-1-yl]cyclobutyl}-N-[2,2,2-trifluoro-1-(trifluoromethyl)ethyl]piperazine-1-carboxamide] | > 8.00 | < 7.00 |
